# Results published in US20100267561A1, “HERBICIDAL PYRIDAZINONE DERIVATIVES” (priority 2007, published 2010).
# Columns and labels:
# Assay in all cases: Test B pre-/postemergence plant response
# Assay type in all cases: in vivo
# [1] = test system: yellow nutsedge (Cyperus esculentus)
# Summary of the method: (§1)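 Visual scoring from 0 (no effect) to 100 (complete control) against untreated controls was done 13 to 15 days after greenhouse treatment. Chemicals were formulated in a surfactant-containing non-phytotoxic solvent and applied to soil preemergence or to 1- to 4-leaf (2-18 cm) plants postemergence.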
# corn (Zea mays) = conditions: for Corn plant response rating: 8 g ai/ha
# Summary of the method: as §1
# [2] = test system: common ragweed (Ambrosia elation)
# Summary of the method: as §1
# [3] = test system: cocklebur (Xanthium strumarium); conditions: for Cocklebur plant response rating: 8 g ai/ha
# Summary of the method: as §1
# [4] = test system: large crabgrass (Digitaria sanguinalis)
# Summary of the method: as §1
# wild oat (Avena fatua) = test system: wild oat (Avena fatua)
# Summary of the method: as §1
# [5] = test system: blackgrass (Alopecurus myosuroides); conditions: for Blackgrass plant response rating: 8 g ai/ha
# Summary of the method: as §1
# kochia (Kochia scoparia) = conditions: for Plant response rating, Kochia: Postemergence
# Summary of the method: as §1
# [6] = test system: johnsongrass (Sorghum halepense)
# Summary of the method: as §1
# [7] = test system: velvetleaf (Abutilon theophrasti)
# Summary of the method: as §1
# [8] = test system: woolly cupgrass (Eriochloa villosa)
# Summary of the method: as §1
# [9] = test system: goosegrass (Eleusine indica)
# Summary of the method: as §1
# [10] = test system: Russian thistle (Salsola iberica); conditions: Preemergence
# Summary of the method: as §1
# [11] = test system: catchweed bedstraw (Galium aparine); conditions: Preemergence
# Summary of the method: as §1
# [12] = 8 g ai/ha, postemergence, 0-100 scale
# [13] = Postemergence, 16 g ai/ha, scale 0 to 100
# [14] = Postemergence, 31 g ai/ha, scale 0 to 100, 0 no effect, 100 complete control
# [15] = Postemergence, 62 g ai/ha, scale 0 to 100, 0 no effect, 100 complete control
# [16] = Preemergence, 16 g ai/ha, scale 0 to 100 (0 no effect, 100 complete control)
# [17] = Preemergence, 31 g ai/ha, 0 to 100 scale, 0 no effect, 100 complete control
# [18] = Preemergence, 62 g ai/ha, scale 0 to 100
# [19] = Preemergence, 8 g ai/ha, scale 0 to 100
# [20] = 31 g ai/ha, 0 to 100 scale, 0 no effect, 100 complete control
# [21] = Preemergence, 31 g ai/ha, scale 0 to 100 (0 no effect, 100 complete control)
# [22] = Preemergence, 16 g ai/ha, scale 0 to 100
compound,measurement,setting,value
Cn1ncc(O)c(-c2nn(-c3ccc(Cl)cc3)cc2Cl)c1=O [Compound 28],"Nutsedge, Yellow plant response rating",[1]; [12],0
same,"Plant response rating, Nutsedge, Yellow",[1]; [13],0
same,"Plant response rating, Nutsedge, Yellow",[1]; [14],0
same,"Plant response rating, Nutsedge, Yellow",[1]; [15],0
same,"Plant response rating, Nutsedge, Yellow",[1]; [16],0
same,"Plant response rating, Nutsedge, Yellow",[1]; [17],0
same,"Plant response rating, Nutsedge, Yellow",[1]; [18],0
same,"Nutsedge, Yellow plant response rating",[1]; [19],0
same,Corn plant response rating,"corn (Zea mays); postemergence, 0-100 scale",0
same,"Plant response rating, Corn",corn (Zea mays); [13],0
same,"Plant response rating, Corn",corn (Zea mays); [14],0
same,"Plant response rating, Corn",corn (Zea mays); [15],40
same,"Plant response rating, Corn",corn (Zea mays); [16],0
same,"Plant response rating, Corn",corn (Zea mays); [17],55
same,"Plant response rating, Corn",corn (Zea mays); [18],90
same,Corn plant response rating,"corn (Zea mays); Preemergence, scale 0 to 100",0
same,Ragweed plant response rating,[2]; [12],0
same,"Plant response rating, Ragweed",[2]; [13],0
same,"Plant response rating, Ragweed",[2]; [14],0
same,"Plant response rating, Ragweed",[2]; [15],0
same,"Plant response rating, Ragweed",[2]; [16],0
same,"Plant response rating, Ragweed",[2]; [17],0
same,"Plant response rating, Ragweed",[2]; [18],0
same,Ragweed plant response rating,[2]; [19],0
same,Cocklebur plant response rating,"[3]; postemergence, 0-100 scale",0
same,"Plant response rating, Cocklebur",[3]; [13],0
same,"Plant response rating, Cocklebur",[3]; [14],0
same,"Plant response rating, Cocklebur",[3]; [15],0
same,"Plant response rating, Cocklebur",[3]; [16],0
same,"Plant response rating, Cocklebur",[3]; [17],0
same,"Plant response rating, Cocklebur",[3]; [18],0
same,Cocklebur plant response rating,"[3]; Preemergence, scale 0 to 100",0
same,"Crabgrass, Large plant response rating",[4]; [12],60
same,"Plant response rating, Crabgrass, Large",[4]; [13],75
same,"Plant response rating, Crabgrass, Large",[4]; [14],80
same,"Plant response rating, Crabgrass, Large",[4]; [15],98
same,"Plant response rating, Crabgrass, Large",[4]; [16],98
same,"Plant response rating, Crabgrass, Large",[4]; [17],100
same,"Plant response rating, Crabgrass, Large",[4]; [18],100
same,"Crabgrass, Large plant response rating",[4]; [19],65
same,"Oat, Wild plant response rating",wild oat (Avena fatua); [12],45
same,"Plant response rating, Oat, Wild",wild oat (Avena fatua); [13],80
same,"Plant response rating, Oat, Wild",wild oat (Avena fatua); [14],95
same,"Plant response rating, Oat, Wild",wild oat (Avena fatua); [15],98
same,"Plant response rating, Oat, Wild",wild oat (Avena fatua); [16],50
same,"Plant response rating, Oat, Wild",wild oat (Avena fatua); [17],70
same,"Plant response rating, Oat, Wild",wild oat (Avena fatua); [18],90
same,"Oat, Wild plant response rating",wild oat (Avena fatua); [19],0
same,Blackgrass plant response rating,"[5]; postemergence, 0-100 scale",60
same,"Plant response rating, Blackgrass",[5]; [13],70
same,"Plant response rating, Blackgrass",[5]; [14],95
same,"Plant response rating, Blackgrass",[5]; [15],100
same,Kochia plant response rating,kochia (Kochia scoparia); [12],0
same,"Plant response rating, Kochia","kochia (Kochia scoparia); 16 g ai/ha, scale 0 to 100",0
same,"Plant response rating, Kochia","kochia (Kochia scoparia); 31 g ai/ha, scale 0 to 100, 0 no effect, 100 complete control",0
same,"Plant response rating, Kochia","kochia (Kochia scoparia); 62 g ai/ha, scale 0 to 100, 0 no effect, 100 complete control",0
same,Johnsongrass plant response rating,[6]; [12],20
same,"Plant response rating, Johnsongrass",[6]; [13],65
same,"Plant response rating, Johnsongrass",[6]; [14],75
same,"Plant response rating, Johnsongrass",[6]; [15],98
same,"Plant response rating, Johnsongrass",[6]; [16],85
same,"Plant response rating, Johnsongrass",[6]; [17],98
same,"Plant response rating, Johnsongrass",[6]; [18],100
same,Johnsongrass plant response rating,[6]; [19],70
same,Velvetleaf plant response rating,[7]; [12],0
same,"Plant response rating, Velvetleaf",[7]; [13],0
same,"Plant response rating, Velvetleaf",[7]; [15],0
same,"Plant response rating, Velvetleaf",[7]; [16],0
same,"Plant response rating, Velvetleaf",[7]; [17],0
same,"Plant response rating, Velvetleaf",[7]; [18],0
same,Velvetleaf plant response rating,[7]; [19],0
same,"Cupgrass, Woolly plant response rating",[8]; [12],50
same,"Plant response rating, Cupgrass, Woolly",[8]; [13],55
same,"Plant response rating, Cupgrass, Woolly",[8]; [14],95
same,"Plant response rating, Cupgrass, Woolly",[8]; [15],95
same,"Plant response rating, Cupgrass, Woolly",[8]; [16],30
same,"Plant response rating, Cupgrass, Woolly",[8]; [17],98
same,"Plant response rating, Cupgrass, Woolly",[8]; [18],98
same,"Cupgrass, Woolly plant response rating",[8]; [19],0
same,Goosegrass plant response rating,[9]; [12],65
same,"Plant response rating, Goosegrass",[9]; [13],75
same,"Plant response rating, Goosegrass",[9]; [14],80
same,"Plant response rating, Goosegrass",[9]; [15],90
same,"Plant response rating, Goosegrass",[9]; [16],100
same,"Plant response rating, Goosegrass",[9]; [17],100
same,"Plant response rating, Goosegrass",[9]; [18],100
same,Goosegrass plant response rating,[9]; [19],80
same,"Plant response rating, Russian Thistle","[10]; 16 g ai/ha, scale 0 to 100 (0 no effect, 100 complete control)",0
same,"Plant response rating, Russian Thistle",[10]; [20],0
same,"Plant response rating, Russian Thistle","[10]; 62 g ai/ha, scale 0 to 100",0
same,Russian Thistle plant response rating,"[10]; 8 g ai/ha, scale 0 to 100",0
Cc1cc(-c2ccc(Cl)cc2)nn1-c1c(OS(=O)(=O)c2ccccc2[N+](=O)[O-])cnn(C)c1=O [Compound 51],"Plant response rating, Nutsedge, Yellow",[1]; [21],0
same,"Plant response rating, Nutsedge, Yellow",[1]; [18],0
same,"Nutsedge, Yellow plant response rating",[1]; [19],0
same,"Nutsedge, Yellow plant response rating",[1]; [22],0
same,"Plant response rating, Corn",corn (Zea mays); [17],60
same,"Plant response rating, Corn",corn (Zea mays); [18],80
same,"Plant response rating, Ragweed",[2]; [21],0
same,"Plant response rating, Ragweed",[2]; [18],0
same,Ragweed plant response rating,[2]; [19],0
same,Ragweed plant response rating,[2]; [22],0
same,"Plant response rating, Cocklebur",[3]; [16],0
same,"Plant response rating, Cocklebur",[3]; [17],0
same,"Plant response rating, Cocklebur",[3]; [18],0
same,Cocklebur plant response rating,"[3]; Preemergence, scale 0 to 100",0
same,"Plant response rating, Galium",[11]; [20],0
same,"Plant response rating, Galium","[11]; 62 g ai/ha, scale 0 to 100",0
same,Galium plant response rating,"[11]; 8 g ai/ha, scale 0 to 100",0
same,Galium plant response rating,"[11]; 16 g ai/ha, scale 0 to 100",0
same,"Plant response rating, Crabgrass, Large",[4]; [17],75
same,"Plant response rating, Crabgrass, Large",[4]; [18],90
same,"Crabgrass, Large plant response rating",[4]; [19],0
same,"Crabgrass, Large plant response rating",[4]; [22],20
same,"Plant response rating, Oat, Wild",wild oat (Avena fatua); [21],80
same,"Plant response rating, Oat, Wild",wild oat (Avena fatua); [18],90
same,"Oat, Wild plant response rating",wild oat (Avena fatua); [19],0
same,"Oat, Wild plant response rating",wild oat (Avena fatua); [22],10
same,"Plant response rating, Blackgrass",[5]; [16],98
same,"Plant response rating, Blackgrass",[5]; [17],98
same,"Plant response rating, Blackgrass",[5]; [18],100
same,Blackgrass plant response rating,"[5]; Preemergence, scale 0 to 100",50
same,"Plant response rating, Johnsongrass",[6]; [17],70
same,"Plant response rating, Johnsongrass",[6]; [18],80
same,Johnsongrass plant response rating,[6]; [22],50
same,"Plant response rating, Velvetleaf",[7]; [21],0
same,"Plant response rating, Velvetleaf","[7]; Preemergence, 62 g ai/ha, 0 to 100 scale, 0 no effect, 100 complete control",0
same,Velvetleaf plant response rating,[7]; [19],0
same,Velvetleaf plant response rating,[7]; [22],0
same,"Plant response rating, Cupgrass, Woolly",[8]; [17],90
same,"Plant response rating, Cupgrass, Woolly",[8]; [18],100
same,"Cupgrass, Woolly plant response rating",[8]; [19],0
same,"Cupgrass, Woolly plant response rating",[8]; [22],80
same,"Plant response rating, Goosegrass",[9]; [17],75
same,"Plant response rating, Goosegrass",[9]; [18],90
same,Goosegrass plant response rating,[9]; [19],0
same,Goosegrass plant response rating,[9]; [22],60
same,"Plant response rating, Russian Thistle","[10]; 31 g ai/ha, scale 0 to 100 (0 no effect, 100 complete control)",0
same,"Plant response rating, Russian Thistle","[10]; 62 g ai/ha, scale 0 to 100",0
same,Russian Thistle plant response rating,"[10]; 8 g ai/ha, scale 0 to 100",0
same,Russian Thistle plant response rating,"[10]; 16 g ai/ha, scale 0 to 100",0
